Assay results from patent EP0019764A1, “Trans-3-(4'-tert.-butyl-cyclohexyl-1')-2-methyl-1-(3'-methylpiperidino, 3',5'-dimethylpiperidino and 2', 6'-dimethylmorpholino) propane, process for their pure preparation, antimycotic agents containing them and their utilisation” (BASF Aktiengesellschaft, priority 1979, dated 1980).
Values after ≈ are worked out from the molar mass of the structure shown. Where two headings read alike, the source gives them in different places.

Key:
Epidermophyton floccosum = assay: agar dilution test, minimal inhibitory concentration; format: cell-based; conditions: Stamm No 157/M, Agardilutionstest, read-out: MHK-Werte
Source text: (§1) Die Wirkung gegenüber Mikroorganismen kann nach Methoden, wie sie beispielsweise in P. Klein, Bakteriologische Grundlagen der chemotherapeutischen Laboratoriumspraxis, Springer-Verlag Berlin, 1957, beschrieben sind, aufgezeigt werden.
(§2) Beispielsweise wurde geprüft, welche minimalen Hemmkonzentrationen (MHK-Werte) im Agardilutionstest gegen pathogene Pilze erreicht werden können.
(§3) In der folgenden Tabelle 1 sind die Ergebnisse zusammengefaßt: […]

Microsporum canis = assay: as above; format: cell-based; conditions: Agardilutionstest, read-out: MHK-Werte
Source text: as §1, §2, §3

Microsporum ferrugineum = assay: as above; format: cell-based; conditions: Stamm No 5/M, Agardilutionstest, read-out: MHK-Werte
Source text: as §1, §2, §3

Microsporum gypseum = assay: as above; format: cell-based; conditions: Nannizzia gypsea; Stamm No 156/M; Agardilutionstest; read-out: MHK-Werte
Source text: as §1, §2, §3

[1] = system: Trichophyton mentagrophytes; assay: as above; format: cell-based; conditions: Agardilutionstest, read-out: MHK-Werte
Source text: as §1, §2, §3

Trichophyton rubrum = assay: as above; format: cell-based; conditions: Stamm No 158/M, Agardilutionstest, read-out: MHK-Werte
Source text: as §1, §2, §3

[2] = system: Trichophyton schoenleinii; assay: as above; format: cell-based; conditions: Stamm No 9/M, Agardilutionstest, read-out: MHK-Werte
Source text: as §1, §2, §3

Trichophyton violaceum = assay: as above; format: cell-based; conditions: Stamm No 10/M, Agardilutionstest, read-out: MHK-Werte
Source text: as §1, §2, §3

[3] = acute oral toxicity (LD50) in the mouse; conditions: in vivo, Maus per os
Source text: Aus diesen LD50-Werten ergibt sich für die topische und systemische Anwendung nach oraler Gabe eine genügend therapeutische Breite.

[4] = system: humanpathogenen Pilzen und Hefen aus dem Verwandtschaftskreis der Dermatophyten; assay: inhibitory effect on microorganisms, trans compound compared with cis compound; format: cell-based; conditions: compared with the respective cis compound; Hemmeffekte gegenüber Mikroorganismen
Source text: Aufgrund der überraschenden Feststellung, daß die reinen trans-Verbindungen gegenüber humanpathogenen Pilzen und Hefen aus dem Verwandtschaftskreis der Dermatophyten um das 10-fache und noch darüber hinaus stärker wirksam sind als die cis-Verbindungen, ist es eine Aufgabe der Erfindung, Verfahren zur Herstellung der reinen trans-Verbindungen (1) bis (3) zu entwickeln.
überraschenderweise sind die reinen trans-Verbindungen fast ausschließlich Träger der guten antimykotischen Wirkung. Verglichen mit der jeweiligen cis-Verbindung und bezogen auf die Hemmeffekte gegenüber Mikroorganismen, sind die trans-Verbindungen (1), (2) und (3) 10-fach und noch darüber hinaus stärker wirksam. Das bedeutet beispielsweise bei etwa gleichen Toxizitätswerten eine wesentliche Verbesserung der therapeutischen Breite.

| Compound | MIC (Epidermophyton floccosum) [µg/mL] | MIC (Microsporum canis; Stamm No 155/M) [µg/mL] | MIC (Microsporum canis; Stamm No 167/M) [µg/mL] | MIC (Microsporum canis; Stamm No 168/M) [µg/mL] | MIC (Microsporum canis; Stamm No 169/M) [µg/mL] | MIC (Microsporum ferrugineum) [µg/mL] | MIC (Microsporum gypseum) [µg/mL] | MIC ([1]; Stamm No 19/M) [µg/mL] | MIC ([1]; Stamm No 21/M) [µg/mL] | MIC ([1]; Stamm No 159/M) [µg/mL] | MIC ([1]; Stamm No 160/M) [µg/mL] | MIC ([1]; Stamm No 170/M) [µg/mL] | MIC ([1]; Stamm No 171/M) [µg/mL] | MIC ([1]; Stamm No 172/M) [µg/mL] | MIC ([1]; Stamm No 173/M) [µg/mL] | MIC ([1]; Stamm No 174/M) [µg/mL] | MIC (Trichophyton rubrum) [µg/mL] | MIC [2] [µg/mL] | MIC (Trichophyton violaceum) [µg/mL] | LD50 [3] [mg/kg] | further results |
| --- | --- | --- | --- | --- | --- | --- | --- | --- | --- | --- | --- | --- | --- | --- | --- | --- | --- | --- | --- | --- | --- |
| Clc1ccc(COC(Cn2ccnc2)c2ccc(Cl)cc2Cl)c(Cl)c1 (centres unmarked) [Miconazol, reference compound] | > 1.28 | > 1.28 | > 1.28 | > 1.28 | > 1.28 | > 1.28 | > 1.28 | > 1.28 | > 1.28 | 0.32 (≈ 0.769 µM) | > 1.28 | 1.28 (≈ 3.08 µM) | 0.64 (≈ 1.54 µM) | 0.32 (≈ 0.769 µM) | 0.32 (≈ 0.769 µM) | > 1.28 | > 1.28 | > 1.28 | 0.64 (≈ 1.54 µM) | – | – |
| CC1CC(C)CN(CC(C)C[C@H]2CC[C@H](C(C)(C)C)CC2)C1 (relative stereo) [(2) trans, trans-3-(4'-tert.-Butyl-cyclohexyl-1')-2-methyl-1-(3',5'--dimethyl-l'-piperidino)-propan] | 0.0156 (≈ 0.0507 µM) | 0.0312 (≈ 0.101 µM) | 0.0156 (≈ 0.0507 µM) | < 0.0078 | 0.0312 (≈ 0.101 µM) | < 0.0078 | 0.0312 (≈ 0.101 µM) | 0.0625 (≈ 0.203 µM) | 0.0312 (≈ 0.101 µM) | < 0.0078 | 0.0312 (≈ 0.101 µM) | < 0.0078 | < 0.0078 | 0.0312 (≈ 0.101 µM) | 0.0312 (≈ 0.101 µM) | 0.0156 (≈ 0.0507 µM) | 0.0312 (≈ 0.101 µM) | 0.0156 (≈ 0.0507 µM) | < 0.0078 | 335 | stärker wirksam als die cis-Verbindung [4]: ≥ 10 fach |
| Clc1ccccc1C(c1ccccc1)(c1ccccc1)n1ccnc1 [Clotrimazol, reference compound] | 0.32 (≈ 0.928 µM) | 0.32 (≈ 0.928 µM) | 0.64 (≈ 1.86 µM) | 0.16 (≈ 0.464 µM) | 0.64 (≈ 1.86 µM) | 0.16 (≈ 0.464 µM) | 0.64 (≈ 1.86 µM) | 1.28 (≈ 3.71 µM) | 1.28 (≈ 3.71 µM) | 0.32 (≈ 0.928 µM) | 0.64 (≈ 1.86 µM) | 0.32 (≈ 0.928 µM) | 0.32 (≈ 0.928 µM) | 0.64 (≈ 1.86 µM) | 0.64 (≈ 1.86 µM) | 1.28 (≈ 3.71 µM) | 1.28 (≈ 3.71 µM) | 0.64 (≈ 1.86 µM) | 0.16 (≈ 0.464 µM) | – | – |
| CC1CCCN(CC(C)C[C@H]2CC[C@H](C(C)(C)C)CC2)C1 (relative stereo) [(1) trans, trans-3-(4'-tert.-Butyl-cyclohexyl-1')-2-methyl-1-(3'--methyl-1'-piperidino)-propan] | 0.0312 (≈ 0.106 µM) | 0.0156 (≈ 0.0531 µM) | 0.0312 (≈ 0.106 µM) | 0.0156 (≈ 0.0531 µM) | 0.0625 (≈ 0.213 µM) | 0.0078 (≈ 0.0266 µM) | 0.0156 (≈ 0.0531 µM) | 0.0312 (≈ 0.106 µM) | 0.0312 (≈ 0.106 µM) | 0.0078 (≈ 0.0266 µM) | 0.0312 (≈ 0.106 µM) | 0.0156 (≈ 0.0531 µM) | 0.0156 (≈ 0.0531 µM) | 0.0625 (≈ 0.213 µM) | 0.0312 (≈ 0.106 µM) | 0.0312 (≈ 0.106 µM) | 0.0312 (≈ 0.106 µM) | 0.0625 (≈ 0.213 µM) | 0.0156 (≈ 0.0531 µM) | 305 | stärker wirksam als die cis-Verbindung [4]: ≥ 10 fach |
| CC(CN1C[C@@H](C)O[C@@H](C)C1)C[C@H]1CC[C@H](C(C)(C)C)CC1 (relative stereo) [(3) trans, trans-3-(4'-tert.-Butyl-cyclohexyl-1')-2-methyl-1--(2',6'-cis-dimethylmorpholino)-propan] | 0.0312 (≈ 0.101 µM) | 0.0312 (≈ 0.101 µM) | 0.0312 (≈ 0.101 µM) | 0.0156 (≈ 0.0504 µM) | 0.0312 (≈ 0.101 µM) | < 0.0078 | 0.0156 (≈ 0.0504 µM) | 0.0312 (≈ 0.101 µM) | 0.0625 (≈ 0.202 µM) | < 0.0078 | 0.0625 (≈ 0.202 µM) | 0.0156 (≈ 0.0504 µM) | 0.0156 (≈ 0.0504 µM) | 0.0625 (≈ 0.202 µM) | 0.0625 (≈ 0.202 µM) | 0.0156 (≈ 0.0504 µM) | 0.0625 (≈ 0.202 µM) | 0.0156 (≈ 0.0504 µM) | 0.0156 (≈ 0.0504 µM) | 2250 | stärker wirksam als die cis-Verbindung [4]: ≥ 10 fach |
